{"source": "the OligoGym collection", "note": "HELM strings list units from the 5' end as sugar, base in round brackets, then linkage (d deoxyribose, r ribose, m 2'-O-methyl, p phosphodiester). Strings are as the collection lists them, not checked against the first reports. ss, as = sense and antisense strand; [lna] = locked nucleic acid (LNA); [una] = unlocked nucleic acid; [fl2r] = 2'-fluoro; note: test system not given here", "data": [{"details": "siRNA", "units": {"target mRNA knockdown": "%"}, "values": [{"substance": "RNA1{r(C)p.r(U)p.r(U)p.r(A)p.r(C)p.r(G)p.r(C)p.r(U)p.r(G)p.r(A)p.r(G)p.r(U)p.r(A)p.r(C)p.r(U)p.r(U)p.r(C)p.r(G)p.r(A)p.d(T)p.d(T)}|RNA2{r(U)p.r(C)p.r(G)p.r(A)p.r(A)p.r(G)p.r(U)p.r(A)p.r(C)p.r(U)p.r(C)p.r(A)p.r(G)p.r(C)p.r(G)p.r(U)p.r(A)p.r(A)p.r(G)p.[lna](T)p.[lna](T)}$$$RNA1{StrandType:ss}|RNA2{StrandType:as}$", "target mRNA knockdown": 92}, {"substance": "RNA1{r(C)p.r(U)p.r(C)p.r(C)p.r(U)p.r(U)p.m(C)p.r(A)p.r(U)p.r(U)p.r(C)p.m(C)p.r(A)p.r(G)p.r(C)p.r(C)p.m(U)p.r(A)p.r(U)p.r(T)p.r(T)}|RNA2{r(A)p.m(U)p.r(A)p.r(G)p.r(G)p.r(C)p.m(U)p.r(G)p.r(G)p.r(A)p.r(A)p.m(U)p.r(G)p.r(A)p.r(A)p.r(G)p.r(G)p.r(A)p.r(G)p.r(T)p.r(T)}$$$RNA1{StrandType:ss}|RNA2{StrandType:as}$", "target mRNA knockdown": 78}, {"substance": "RNA1{r(G)p.r(U)p.r(C)p.m(U)p.r(A)p.m(U)p.r(G)p.r(C)p.m(C)p.r(A)p.r(A)p.r(G)p.r(A)p.r(A)p.r(G)p.r(G)p.r(G)p.r(A)p.r(G)p.r(T)p.r(T)}|RNA2{r(C)p.r(U)p.r(C)p.r(C)p.r(C)p.r(U)p.r(U)p.r(C)p.r(U)p.m(U)p.r(G)p.r(G)p.m(C)p.r(A)p.m(U)p.r(A)p.r(G)p.r(A)p.r(C)p.r(T)p.r(T)}$$$RNA1{StrandType:ss}|RNA2{StrandType:as}$", "target mRNA knockdown": 72}, {"substance": "RNA1{r(G)p.r(G)p.r(A)p.r(C)p.r(A)p.r(U)p.r(U)p.r(C)p.r(A)p.r(G)p.r(A)p.r(A)p.r(C)p.r(A)p.r(A)p.r(G)p.r(A)p.r(A)p.r(A)p.[una](U)p.[una](U)}|RNA2{r(U)p.r(U)p.r(U)p.r(C)p.r(U)p.r(U)p.[una](G)p.r(U)p.r(U)p.r(C)p.r(U)p.r(G)p.r(A)p.r(A)p.r(U)p.r(G)p.r(U)p.r(C)p.r(C)p.[una](U)p.[una](U)}$$$RNA1{StrandType:ss}|RNA2{StrandType:as}$", "target mRNA knockdown": 78}, {"substance": "RNA1{r(G)p.r(G)p.m(U)p.r(A)p.r(G)p.r(A)p.r(A)p.r(U)p.r(A)p.r(G)p.r(G)p.r(U)p.r(U)p.r(U)p.r(U)p.r(C)p.r(C)p.r(C)p.r(C)p.r(T)p.r(T)}|RNA2{r(G)p.r(G)p.r(G)p.r(G)p.r(A)p.r(A)p.r(A)p.r(A)p.r(C)p.r(C)p.m(U)p.r(A)p.r(U)p.r(U)p.r(C)p.r(U)p.r(A)p.r(C)p.r(C)p.r(T)p.r(T)}$$$RNA1{StrandType:ss}|RNA2{StrandType:as}$", "target mRNA knockdown": 82}, {"substance": "RNA1{r(C)p.r(G)p.m(C)p.r(C)p.r(C)p.m(C)p.r(C)p.r(C)p.r(U)p.m(C)p.r(A)p.r(A)p.r(G)p.r(C)p.m(U)p.r(A)p.r(C)p.r(C)p.r(G)p.r(T)p.r(T)}|RNA2{r(C)p.r(G)p.r(G)p.m(U)p.r(A)p.r(G)p.r(C)p.r(U)p.m(U)p.r(G)p.r(A)p.r(G)p.r(G)p.r(G)p.r(G)p.r(G)p.r(G)p.r(C)p.r(G)p.r(T)p.r(T)}$$$RNA1{StrandType:ss}|RNA2{StrandType:as}$", "target mRNA knockdown": 72}, {"substance": "RNA1{r(A)p.r(G)p.r(U)p.m(U)p.r(A)p.r(A)p.r(C)p.r(C)p.r(C)p.r(G)p.r(G)p.r(G)p.r(A)p.r(C)p.r(U)p.r(U)p.r(G)p.r(G)p.r(A)p.r(T)p.r(T)}|RNA2{r(U)p.r(C)p.m(C)p.r(A)p.r(A)p.r(G)p.r(U)p.r(C)p.r(C)p.r(C)p.r(G)p.r(G)p.r(G)p.r(U)p.r(U)p.r(A)p.r(A)p.r(C)p.r(U)p.r(T)p.r(T)}$$$RNA1{StrandType:ss}|RNA2{StrandType:as}$", "target mRNA knockdown": 91}, {"substance": "RNA1{m(A)p.r(G)p.m(C)p.r(G)p.m(G)p.r(G)p.m(G)p.r(U)p.m(A)p.r(U)p.m(G)p.r(A)p.m(A)p.r(G)p.m(A)p.r(G)p.m(C)p.r(U)p.m(U)p.r(T)p.r(T)}|RNA2{r(A)p.r(A)p.r(G)p.r(C)p.r(U)p.r(C)p.r(U)p.r(U)p.r(C)p.r(A)p.r(U)p.r(A)p.r(C)p.r(C)p.r(C)p.r(C)p.r(G)p.r(C)p.r(U)p.r(T)p.r(T)}$$$RNA1{StrandType:ss}|RNA2{StrandType:as}$", "target mRNA knockdown": 75}, {"substance": "RNA1{m(A)p.r(U)p.m(A)p.r(C)p.m(U)p.r(U)p.m(G)p.r(G)p.m(C)p.r(G)p.m(G)p.r(G)p.m(C)p.r(U)p.m(C)p.r(U)p.m(U)p.r(U)p.m(C)p.r(T)p.r(T)}|RNA2{m(G)p.r(A)p.r(A)p.r(A)p.m(G)p.r(A)p.m(G)p.r(C)p.r(C)p.r(C)p.m(G)p.r(C)p.r(C)p.r(A)p.r(A)p.m(G)p.r(U)p.r(A)p.r(U)p.r(T)p.r(T)}$$$RNA1{StrandType:ss}|RNA2{StrandType:as}$", "target mRNA knockdown": 25}, {"substance": "RNA1{r(A)p.r(A)p.m(C)p.m(C)p.m(C)p.r(A)p.r(A)p.r(A)p.r(G)p.r(G)p.r(G)p.r(G)p.r(A)p.r(G)p.r(U)p.r(U)p.r(G)p.m(C)p.r(U)p.r(T)p.r(T)}|RNA2{m(A)p.r(G)p.m(C)p.r(A)p.m(A)p.r(C)p.m(U)p.r(C)p.m(C)p.r(C)p.m(C)p.r(U)p.m(U)p.r(U)p.m(G)p.r(G)p.m(G)p.r(U)p.m(U)p.r(T)p.r(T)}$$$RNA1{StrandType:ss}|RNA2{StrandType:as}$", "target mRNA knockdown": 37}, {"substance": "RNA1{r(U)p.r(C)p.r(C)p.r(A)p.r(A)p.r(G)p.r(C)p.r(U)p.r(U)p.r(C)p.r(C)p.r(U)p.r(C)p.r(G)p.r(U)p.r(U)p.r(G)p.r(G)p.r(U)p.r(T)p.r(T)}|RNA2{r(A)p.r(C)p.[fl2r](C)p.r(A)p.r(A)p.r(C)p.r(G)p.r(A)p.r(G)p.r(G)p.r(A)p.r(A)p.r(G)p.r(C)p.r(U)p.[fl2r](U)p.r(G)p.r(G)p.r(A)p.r(T)p.r(T)}$$$RNA1{StrandType:ss}|RNA2{StrandType:as}$", "target mRNA knockdown": 71}, {"substance": "RNA1{m(A)p.r(U)p.m(C)p.r(A)p.m(C)p.r(A)p.m(A)p.r(A)p.m(C)p.r(C)p.m(C)p.r(C)p.m(U)p.r(A)p.m(G)p.r(A)p.m(G)p.r(G)p.m(G)p.r(T)p.r(T)}|RNA2{r(C)p.r(C)p.r(C)p.r(U)p.r(C)p.r(U)p.m(A)p.r(G)p.r(G)p.r(G)p.r(G)p.r(U)p.r(U)p.r(U)p.r(G)p.r(U)p.r(G)p.m(A)p.r(U)p.r(T)p.r(T)}$$$RNA1{StrandType:ss}|RNA2{StrandType:as}$", "target mRNA knockdown": 35}, {"substance": "RNA1{m(U)p.r(G)p.m(A)p.r(A)p.m(C)p.r(G)p.m(U)p.r(C)p.m(A)p.r(C)p.m(C)p.r(G)p.m(A)p.r(G)p.m(G)p.r(A)p.m(G)p.r(A)p.m(A)p.r(T)p.r(T)}|RNA2{r(U)p.r(U)p.r(C)p.r(U)p.r(C)p.r(C)p.r(U)p.r(C)p.r(G)p.r(G)p.r(U)p.r(G)p.m(A)p.r(C)p.r(G)p.r(U)p.r(U)p.r(C)p.m(A)p.r(T)p.r(T)}$$$RNA1{StrandType:ss}|RNA2{StrandType:as}$", "target mRNA knockdown": 65}, {"substance": "RNA1{r(C)p.[fl2r](U)p.r(A)p.r(G)p.r(A)p.r(G)p.r(G)p.r(A)p.r(U)p.r(C)p.r(U)p.r(U)p.r(G)p.r(A)p.r(A)p.r(G)p.r(A)p.r(C)p.r(C)p.r(T)p.r(T)}|RNA2{r(G)p.r(G)p.r(U)p.r(C)p.r(U)p.r(U)p.r(C)p.r(A)p.r(A)p.r(G)p.r(A)p.r(U)p.r(C)p.r(C)p.r(U)p.r(C)p.r(U)p.r(A)p.r(G)p.r(T)p.r(T)}$$$RNA1{StrandType:ss}|RNA2{StrandType:as}$", "target mRNA knockdown": 81}, {"substance": "RNA1{r(A)p.r(U)p.r(C)p.r(G)p.r(U)p.r(C)p.r(G)p.r(U)p.r(C)p.r(A)p.r(G)p.r(G)p.r(G)p.m(U)p.r(A)p.r(A)p.r(G)p.r(G)p.r(U)p.r(T)p.r(T)}|RNA2{r(A)p.r(C)p.r(C)p.r(U)p.m(U)p.r(A)p.r(C)p.r(C)p.r(C)p.r(U)p.r(G)p.r(A)p.r(C)p.r(G)p.r(A)p.r(C)p.r(G)p.r(A)p.r(U)p.r(T)p.r(T)}$$$RNA1{StrandType:ss}|RNA2{StrandType:as}$", "target mRNA knockdown": 49}]}]}
